Measured values reported in US20240173440A1, “HIGH PURITY COPPER RADIOPHARMACEUTICAL COMPOSITIONS AND DIAGNOSTIC AND THERAPEUTIC USES THEREOF” (Nuclidium AG, priority 2022, published 2024).

Columns and labels:
PSMA [1] = molecular target: T1, PSMA (Homo sapiens (Human), UniProt Q04609); assay: Specificity study: PET/CT in LNCaP xenografts after blocking with 2-PMPA, and free [61Cu]CuCl2; type: in vivo, mice; settings: PET/CT 1 hour p.i.
Method: The specificity of [^61Cu]Cu-NODAGA-PSMA-I&T and [^61Cu]Cu-DOTAGA-PSMA-I&T was assessed in LNCaP xenografted mice, firstly injected with 1.3 μmol (300 μg) of 2-Phosphonomethyl pentanedioic acid (2-PMPA) as the blocking agent, followed by the injection of the radiotracer e.g. [^61Cu]Cu-DOTAGA-PSMA-I&T (100 μL/[…]/4-8 MBq) or [^61Cu]Cu-NODAGA-PSMA-I&T (100 μL/[…]/4-8 MBq). One-hour post injection PET/CT images were acquired as described in Example 8. In addition, PET/CT image of xenografts after injection of [^61Cu]CuCl2 (100 μL/7 MBq) was acquired in order to assess the total body distribution of free (uncomplexed)^61Cu. The results are shown in FIG. 10, panels A and B. L=liver; K=kidneys; T=tumor; Bl=bladder; I=intestine.

LNCaP cells = assay: In vitro cellular uptake (cell surface and internalized fractions) in LNCaP cells; type: cell-based
Method: The cellular uptake was studied in vitro using intact cells seeded in 6-well plates overnight. On the day of the experiment, the cells were washed and incubated with each of the exemplified [^61Cu]Cu-radiotracer at different time points, either alone or in the presence of a blocking agent to distinguish between specific and non-specific uptake. At each investigated time point, the medium containing the unbound (free) radiotracer was removed, followed by two washing steps with ice-cold phosphate-buffered saline. The cells were then treated 2×5 min with ice-cold glycine solution (0.05 M, pH 2.8) to detach the cell surface-bound radiotracer (acid released). Afterwards, the cells containing the internalized radiotracer were detached with 1 M NaOH at 37° C. and collected for measurement. The amount of specific cell surface-bound and internalized radiotracer is expressed as percentage of the total applied activity, after subtracting the non-specific values.
2-(phosphonomethyl)-pentanedioic acid (2-PMPA, 10 μM) was used to determine non-specific binding (FIG. 14).
Cellular uptake and distribution between cell surface (cell membrane bound) and internalized fractions of ^61Cu-labeled PSMA-I&T constructs versus their ^68Ga counterparts (Table 19). The values are expressed as % of the applied activity and refer to the specific uptake calculated after subtracting the non-specific values (measured in the presence of 10 μM 2-PMPA) from the total values (specific=total−non specific).

PSMA [2] = molecular target: T1, PSMA; assay: PET/CT imaging in a patient with metastatic prostate cancer; type: in vivo; settings: metastatic castration resistant prostate cancer, imaging 3 hours after administration
Method: Radiopharmaceutical preparation: The reaction is carried out in a GE Healthcare FASTlab 2 module. A 40 μg (28 nmol) aliquot of lyophilized NODAGA-PSMA-I&T (piCHEM, Austria) was dissolved in up to 6 mL 0.5 M sodium acetate (pH 8) and ascorbic acid (20 μg/mL), and transferred to a reaction vial. Then [^61Cu]CuCl2 in 0.05 M hydrochloric acid (0.3-1.0 GBq/mL) (3 mL) was added to the NODAGA-PSMA-I&T solution, reaching a pH between 4.5 and 6.5. The obtained reaction solution was incubated for 10 min at room temperature (approx. 20-25° C.) and dispensed to the product vial (20 mL sterile evacuated vial) over a sterile Cathivex-GV 25 mm PVDF 0.22 μm filter. The product was finally diluted with 0.9% sodium chloride for injection (B. Braun, Germany) up to 12 mL. [^61Cu]Cu-NODAGA-PSMA-I&T is produced with high radiochemical purity (≥95%). Therefore, no further purification step is necessary. All the chemicals used are trace metal grade.
The patient was co-administered […] furosemide (Lasix®, Sanofi-Aventis, Frankfurt, Germany). The imaging was performed at 3 hours following radiotracer administration on a Biograph Vision 600 (Siemens, Germany) PET/CT scanner. These images, shown in FIG. 35, were obtained from the skull to mid-thigh and reconstructed into multiplanar PT, CT, and fused PET/CT images. CT was used for attenuation correction.

T1 sequence (Q04609 whole entry): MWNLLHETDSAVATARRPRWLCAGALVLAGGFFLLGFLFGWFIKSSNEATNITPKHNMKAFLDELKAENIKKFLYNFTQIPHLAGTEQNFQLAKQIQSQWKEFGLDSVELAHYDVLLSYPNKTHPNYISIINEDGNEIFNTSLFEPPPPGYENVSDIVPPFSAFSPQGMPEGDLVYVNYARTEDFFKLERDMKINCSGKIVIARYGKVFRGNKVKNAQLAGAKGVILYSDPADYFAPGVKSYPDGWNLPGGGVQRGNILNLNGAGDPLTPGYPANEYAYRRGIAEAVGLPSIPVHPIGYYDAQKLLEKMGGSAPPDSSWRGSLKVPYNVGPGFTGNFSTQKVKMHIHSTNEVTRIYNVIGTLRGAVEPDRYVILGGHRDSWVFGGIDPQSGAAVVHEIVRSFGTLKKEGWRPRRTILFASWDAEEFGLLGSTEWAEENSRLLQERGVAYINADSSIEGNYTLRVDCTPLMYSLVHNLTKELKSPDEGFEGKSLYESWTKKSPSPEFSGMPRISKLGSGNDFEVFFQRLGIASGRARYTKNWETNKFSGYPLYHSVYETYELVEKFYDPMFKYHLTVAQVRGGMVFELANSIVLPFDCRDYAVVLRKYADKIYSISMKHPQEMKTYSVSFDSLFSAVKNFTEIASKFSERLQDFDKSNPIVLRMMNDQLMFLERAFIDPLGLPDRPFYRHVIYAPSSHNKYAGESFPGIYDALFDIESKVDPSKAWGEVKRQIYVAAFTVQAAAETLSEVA

O=C(O)CC[C@H](NC(=O)N[C@@H](CCCCNC(=O)CCCCCCC(=O)NCCCC[C@@H](NC(=O)[C@@H](Cc1ccccc1)NC(=O)[C@@H](Cc1ccc(O)c(I)c1)NC(=O)CC[C@H](C(=O)O)N1CCN2CCN(CC1)CC(=O)[O][61Cu][O]C(=O)C2)C(=O)O)C(=O)O)C(=O)O [[^61Cu]Cu-NODAGA-PSMA-I&T]
uptake in PSMA-positive tumors and kidneys in xenografts pre-injected with 2-PMPA (PSMA [1]): significantly lower uptake | Cell surface fraction (LNCaP cells; 5 min, specific uptake): 4.3 ± 0.7 % of the applied activity | Internalized fraction (LNCaP cells; 5 min, specific uptake): 1.2 ± 0.2 % of the applied activity | Cell surface fraction (LNCaP cells; 15 min, specific uptake): 8.2 ± 1.0 % of the applied activity | Internalized fraction (LNCaP cells; 15 min, specific uptake): 3.9 ± 0.4 % of the applied activity | Cell surface fraction (LNCaP cells; 30 min, specific uptake): 10.7 ± 1.0 % of the applied activity | Internalized fraction (LNCaP cells; 30 min, specific uptake): 7.0 ± 1.1 % of the applied activity | Cell surface fraction (LNCaP cells; 60 min, specific uptake): 10.8 ± 1.8 % of the applied activity | Internalized fraction (LNCaP cells; 60 min, specific uptake): 11.7 ± 1.6 % of the applied activity | Cell surface fraction (LNCaP cells; 120 min, specific uptake): 10.2 ± 1.8 % of the applied activity | Internalized fraction (LNCaP cells; 120 min, specific uptake): 17.6 ± 2.8 % of the applied activity | Internalized fraction (LNCaP cells; after 1 h at 37° C.): 12±1.9% | cellular uptake in vitro (LNCaP cells; after 1 h at 37° C.): 26.6±0.9% | PSMA-mediated cellular uptake (LNCaP cells; after 2h at 37° C.): approx. 35% | part of the cellular uptake being internalized (LNCaP cells; after 2h at 37° C.): 50-60% | tracer uptake on PET/CT in patient (PSMA [2]): intense tracer uptake by multiple osseous, pelvic lymph node, and liver metastases
